Source: article PMC9138545, “Incorporation of Oxidized Phenylalanine Derivatives into Insulin Signaling Relevant Proteins May Link Oxidative Stress to Signaling Conditions Underlying Chronic Insulin Resistance” (Biomedicines, 2022)

Assays:
[1] = system: Akt (Ser473); assay: Western blot, activating phosphorylation of Akt (Ser473); assay type: cell-based; conditions: n = 4–8; for insulin-induced Akt phosphorylation: 400 nmol/L insulin, adipocytes, HEK cells, podocytes, macrophages; for basal Akt phosphorylation: without insulin, cells grown on o- or m-Tyr medium
Description: (§1) Early passages of mouse embryo fibroblast (3T3-L1) (ATCC, Manassas, VA, US) were cultured in Dulbecco’s modified Eagle medium (DMEM, Sigma Aldrich, Budapest, Hungary, CAT number: D6046; Invitrogen, Waltham, MA, USA, CAT number: 41966-029) supplemented with 100 U/mL penicillin, 0.1 mg/mL streptomycin (Gibco, Budapest, Hungary, CAT number: 15070-063) and 10% heat-inactivated Fetal Bovine Serum (FBS, Gibco, CAT number: 16170-078), supplemented with 398 nM p-, m-, or o-Tyr (equimolar to the original p-Tyr content of the medium) purchased from Sigma (CAT number: para-Tyr: T8566, m-Tyr: T3629, o-Tyr: 93851). Media contained 25 or 5 mmol/L glucose (experiment dependent) pyruvate and L-glutamine. Cells were grown at 37 °C and 5% CO2. Adipocyte differentiation was achieved by DMEM supplemented with 10% FBS (Gibco, Csertex, Budapest, Hungary, CAT number: 10106-169) (FBS) and a […] insulin (Sigma Aldrich, Budapest, Hungary, CAT number: I 9278), […] isobuthylmethylxanthine (Sigma Aldrich, Budapest, Hungary, CAT number: I 5879), and 250 nmol/L dexamethasone (Sigma Aldrich, Budapest, Hungary, CAT number: 861871) containing cocktail. From day 4 onward, cultures were maintained in DMEM containing 1.5 μg/mL insulin and 10% FBS with a medium change every other day until experimental treatments were started. After 90% of the cell population reached the adipocyte phenotype, prior to all treatments, cells were incubated overnight in serum-deprived medium. Experimental treatment was performed in serum-deprived medium containing 200 or 400 nmol/L insulin, for 5 min.
(§2) The conditionally immortalized human podocyte cell line (provided by Moin Saleem, University of Bristol, UK) was cultured in RPMI1640 medium (R8756, Sigma Aldrich, Budapest, Hungary) supplemented with 10% heat-inactivated FBS (16170-078, Gibco, Budapest, Hungary), insulin-transferrin-selenium supplement (41400-045, Gibco), 100 U/mL penicillin, 0.1 mg/mL streptomycin (P4333, Sigma), and […] (equimolar to the original p-Tyr content of the medium) para-, meta-, or ortho-Tyr. The cells were grown at 33 °C 5% CO2, and when they reached 40–60% confluency they were transferred to 37 °C to differentiate. Following the thermoswitching, cells were kept on RPMI1640 medium containing 2% FBS, antibiotics, and different tyrosines. Before every treatment, cells were incubated in serum-deprived medium overnight.
HEK-293 immortalized cell line (ATCC, Manassas, VA, USA) of epithelial morphology and the J774A.1 mouse BALB/C monocyte-macrophage cell lines (91051511-1VL, Sigma Aldrich, Budapest, Hungary) were cultured in Petri dishes with a medium composed of Dulbecco’s modified Eagle’s medium (DMEM, Sigma Aldrich, Budapest, Hungary, CAT number: D6046, Invitrogen, CAT number: 41966-029), with a 10% heat-inactivated FBS supplementation (16170-078, Gibco), insulin-transferrin-selenium supplement (41400-045, Gibco, Budapest, Hungary,), 100 U/mL penicillin and 0.1 mg/mL streptomycin (P4333, Sigma) and 398 nM para (5 and 25 mmol/L), meta-, or ortho-Tyr (T8566, T3629, 93851, Sigma). Before treatment, cells were incubated in serum-deprived medium overnight as well. […]
The samples of lysates were vortexed and centrifuged (10 min, 13,000 rpm, at 4 °C). Protein content of the samples was determined by the Lowry method using bovine serum albumin as a standard. […]

[2] = system: total proteins of cells; assay: HPLC of protein-bound tyrosines (incorporation into cellular proteins); assay type: cell-based; conditions: cells grown on o-Tyr or m-Tyr; n = 5–10
Description: as §1
as §2, with “overnight. […]” for “overnight.”
The total protein-bound cellular tyrosine content was measured by adding 200 μL of distilled water to the samples, followed by freezing overnight at −70 °C to achieve cell lysis. […]

[3] = system: GLUT4 and vimentin in podocytes; assay: Immunofluorescence of GLUT4 and vimentin in insulin-treated podocytes; assay type: cell-based, human; conditions: for GLUT4 membrane localization: 400 nmol/l insulin for 10 min
Description: as §2
In a 6-well plate, 104 cells were cultured on glass coverslips washed with alcohol and dried under UV light. The podocyte cells were grown in RPMI1640 medium supplemented with 10% heat-inactivated FBS at 33 °C, 5% CO2. When they reached 60% confluence, the medium was changed to RPMI1640 medium containing 2% FBS and 112.05 nM of the different tyrosine isoforms, then the plates were transferred to 37 °C, 5% CO2 to allow the cells to differentiate. The different tyrosine isoforms were added to the maintenance medium. The cells were serum deprived overnight, then incubated with 400 nmol/l insulin for 10 min. After removal of the medium, the coverslips were washed twice with PBS. The cells were fixed at room temperature in 2% paraformaldehyde and 4% sucrose for 8 min, then permeabilized using 0.3% Trion X-100 in 1xPBS for 20 min and blocked in 2.5% BSA for 45 min [45]. The primary antibody was diluted in 1xPBS, and the cells were incubated in it for 60 min in humid conditions. The antibodies we used were mouse anti-WT1 antibody (H-1) (1:100, Santa Cruz Biotechnology, Dallas, TX, USA), chicken anti-vimentin antibody (1:100, Abcam), rabbit anti-glucose transporter GLUT4 antibody (1:100, Abcam, Cambridge, UK), mouse Insulin Receptor Substrate-1 antibody (1:100, Invitrogen, Waltham, MA, USA), and rabbit anti-phospho-Insulin Receptor Substrate-1 (pTyr612) antibody (1:10, Sigma). Coverslips were washed in PBS three times for 5 min in PBS and incubated in the fluorophore-conjugated secondary antibodies anti-goat, anti-chicken, secondary antibody Alexa fluor 647, anti-rabbit Alexa fluor 350, and anti-mouse Alexa Fluor 488 (1:10, Invitrogen) for 60 min. Samples were then washed in PBS three times for 5 min and mounted in Vectashield (Vector Laboratories). Images were taken with a Nikon Eclipse Ti2 microscope.

[4] = system: erythroblasts; conditions: ref [43]; cited from earlier work
Text: Furthermore, m- and o-Tyr may have a role beyond being markers ROS attack. […] For example, we have described that patients on renal replacement therapy show a connection between plasma levels of o-Tyr and erythropoietin (EPO) resistance. In a further set of experiments, m- and o-Tyr in ...

N[C@@H](Cc1cccc(O)c1)C(=O)O [m-Tyr, meta-tyrosine]
insulin-induced Akt phosphorylation [1]: could not be further raised by insulin treatment | basal Akt phosphorylation [1]: either unchanged or higher | protein-bound o-Tyr/p-Tyr and m-Tyr/p-Tyr ratio [2]: increased | protein-bound p-Tyr/Phe ratio [2]: either a decrease or remained unchanged | vimentin filaments [3]: thicker vimentin filaments | GLUT4 membrane localization [3]: slightly visible | EPO-dependent proliferation of erythroblasts [4]: inhibited the EPO-dependent proliferation of erythroblasts, in a time- and dose-dependent manner

NC(Cc1ccccc1O)C(=O)O (centres unmarked) [o-Tyr, ortho-tyrosine]
insulin-induced Akt phosphorylation [1]: could not be further raised by insulin treatment | basal Akt phosphorylation [1]: either unchanged or higher | protein-bound o-Tyr/p-Tyr and m-Tyr/p-Tyr ratio [2]: increased | protein-bound p-Tyr/Phe ratio [2]: either a decrease or remained unchanged | vimentin filaments [3]: thicker vimentin filaments | GLUT4 membrane localization [3]: not characteristic in o-Tyr treated cells, which shows rather a perinuclear localization | EPO-dependent proliferation of erythroblasts [4]: inhibited the EPO-dependent proliferation of erythroblasts, in a time- and dose-dependent manner
